In experiment [1] the target is T1, Vasoactive intestinal polypeptide receptor 2 (Homo sapiens) (UniProt P41587).
T1 sequence (whole entry): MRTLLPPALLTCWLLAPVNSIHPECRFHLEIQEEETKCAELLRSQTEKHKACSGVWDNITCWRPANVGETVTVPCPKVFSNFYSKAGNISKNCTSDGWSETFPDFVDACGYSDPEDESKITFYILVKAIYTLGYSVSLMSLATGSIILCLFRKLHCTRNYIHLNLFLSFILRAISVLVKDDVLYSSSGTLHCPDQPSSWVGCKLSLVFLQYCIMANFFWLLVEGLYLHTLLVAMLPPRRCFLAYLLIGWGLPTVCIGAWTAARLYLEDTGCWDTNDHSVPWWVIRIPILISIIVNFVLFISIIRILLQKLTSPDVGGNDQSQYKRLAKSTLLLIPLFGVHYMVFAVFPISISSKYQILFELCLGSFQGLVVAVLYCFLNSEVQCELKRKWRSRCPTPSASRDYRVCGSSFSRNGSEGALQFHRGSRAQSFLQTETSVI
The experiment in a line: Antagonist activity at recombinant human N-terminal signal peptide/FLAG epitope-tagged VIPR2 expressed in HEK293 cells co-expressing CAMYEL assessed as inhibition of VIP-induced cAMP accumulation at 1 uM preincubated for 5 mins with luciferin, coelenterazine H followed by VIP addition measured after 5 mins by BRET assay relative to control. It is filed as functional, cell-based.

Experiment [2] deals with T1, Vasoactive intestinal polypeptide receptor 2 (Homo sapiens). The experiment in a line: Antagonist activity at recombinant human N-terminal signal peptide/FLAG epitope-tagged VIPR2 expressed in HEK293 cells co-expressing CAMYEL assessed as inhibition of VIP-induced cAMP accumulation at 0.5 uM preincubated for 5 mins with luciferin, coelenterazine H followed by VIP addition measured after 5 mins by BRET assay relative to control. The class given is functional, cell-based.

For experiment [3] the target is unchanged. The experiment in a line: Antagonist activity at recombinant human N-terminal signal peptide/FLAG epitope-tagged Rluc8-fused VIPR2 expressed in HEK293 cells assessed as inhibition of VIP-induced human mVenus-beta-arrestin2 binding at 1 uM preincubated for 5 mins with luciferin, coelenterazine H followed by VIP addition measured after 5 mins by BRET assay relative to control. The class given is cell-based.

Experiment [4] has the same target. The experiment in a line: Antagonist activity at recombinant human N-terminal signal peptide/FLAG epitope-tagged Rluc8-fused VIPR2 expressed in HEK293 cells assessed as inhibition of VIP-induced human mVenus-beta-arrestin2 binding at 0.5 uM preincubated for 5 mins with luciferin, coelenterazine H followed by VIP addition measured after 5 mins by BRET assay relative to control. It is filed as cell-based. (In general: Bioluminescence resonance energy transfer reports proximity on the nanometre scale.)

For experiment [5] the target is unchanged. The experiment in a line: Antagonist activity at recombinant human N-terminal signal peptide/FLAG epitope-tagged VIPR2 expressed in HEK293 cells co-expressing CAMYEL assessed as inhibition of VIP-induced cAMP accumulation at 5 uM preincubated for 5 mins with luciferin, coelenterazine H followed by VIP addition measured after 5 mins by BRET assay relative to control. The class given is functional, cell-based.

Experiment [6] shares this target. The experiment in a line: Antagonist activity at recombinant human N-terminal signal peptide/FLAG epitope-tagged Rluc8-fused VIPR2 expressed in HEK293 cells assessed as inhibition of VIP-induced human mVenus-beta-arrestin2 binding at 5 uM preincubated for 5 mins with luciferin, coelenterazine H followed by VIP addition measured after 5 mins by BRET assay relative to control. The class given is cell-based.

As a reminder, the inhibition is the change of the read-out against control, counted positive when it falls.

With `CC(=O)Nc1ccc(S(=O)(=O)NC[C@@H](O)C[C@@H](Cc2ccccc2)C(=O)N[C@H]2c3ccccc3C[C@H]2O)cc1`, the inhibition in experiment [1] was 19.1%; in experiment [2], 15.2%; in experiment [3] it was 4.9%; in experiment [4], -1.2 to 11.7%; in experiment [5], 19.1%; in experiment [6], 4.2%.

Consider `O=C(CCl)NC[C@@H](O)C[C@@H](Cc1ccccc1)C(=O)N[C@H]1c2ccccc2C[C@H]1O`, for which the inhibition in experiment [1] was 19.2%; in experiment [2] it was 18.4%; in experiment [3], 23.7%; in experiment [4] it was 9.9 to 16.6%; in experiment [5], 15.6%; in experiment [6], 17.5%.

`C#CCCCC(=O)NC[C@@H](O)C[C@@H](Cc1ccccc1)C(=O)N[C@H]1c2ccccc2C[C@H]1O`: the inhibition was 20.2% in experiment [1]; 20.8% in experiment [2]; 16.1% in experiment [3]; 26.2 to 45.8% in experiment [4]; 26.6% in experiment [5]; 25.8% in experiment [6].

As to `C#CCNC(=O)[C@@H](Cc1ccccc1)C[C@H](O)CNS(=O)(=O)c1ccc([N+](=O)[O-])cc1`, the inhibition in experiment [1] was 7.3%; in experiment [2] it was 3.1%; in experiment [3], 3.4%; in experiment [4], 3.3 to 10.2%; in experiment [5], 13.5%; in experiment [6], 7%.

Consider `CC(C)CS(=O)(=O)NC[C@@H](O)C[C@@H](Cc1ccccc1)C(=O)N[C@H]1c2ccccc2C[C@H]1O`, for which the inhibition in experiment [1] was 15.6%; in experiment [2], 13.3%; in experiment [3], 3.2%; in experiment [4], 7.1 to 21.1%; in experiment [5], 22.2%; in experiment [6], 20%.

On to `CNC(=O)c1ccc(S(=O)(=O)NC[C@@H](O)C[C@@H](Cc2ccccc2)C(=O)N[C@H]2c3ccccc3C[C@H]2O)cc1`, for which the inhibition in experiment [1] is 22.1%; in experiment [2], 13.8%; in experiment [3] it was -1.6%; in experiment [4], 6.3 to 34.2%; in experiment [5], 69.5%; in experiment [6] it was -1%.

For `O=C(NC1CCCc2ccccc21)[C@@H](Cc1ccccc1)C[C@H](O)CNS(=O)(=O)c1ccc([N+](=O)[O-])cc1` (stereo partly drawn), the inhibition is 6.6 to 69.5% in experiment [1]; 5.1% in experiment [2]; 5.9% in experiment [3]; 4.8 to 9% in experiment [4]; 17.4 to 69.5% in experiment [5]; 0.6% in experiment [6].

For the compound `CC1CCC(NC(=O)[C@@H](Cc2ccccc2)C[C@H](O)CNS(=O)(=O)c2ccc([N+](=O)[O-])cc2)CC1` (stereo partly drawn), the inhibition in experiment [1] is 9.5%; in experiment [2], -0.7%; in experiment [3], -0.4%; in experiment [4] it was 2.15 to 5.7%; in experiment [5] it was 5.1%; in experiment [6], -0.8%.

Consider `CNc1ccc(S(=O)(=O)NC[C@@H](O)C[C@@H](Cc2ccccc2)C(=O)N[C@H]2c3ccccc3C[C@H]2O)cc1`, for which the inhibition was 2% in experiment [1]; -0.9% in experiment [2]; 1.1% in experiment [3]; -1.5 to -0.8% in experiment [4]; -7.3% in experiment [5]; 4.3% in experiment [6].

For the compound `O=C(NC[C@@H](O)C[C@@H](Cc1ccccc1)C(=O)N[C@H]1c2ccccc2C[C@H]1O)c1cccc(Br)c1`, the inhibition in experiment [1] is 18.5%; in experiment [2], 17.4%; in experiment [3], 6.8%; in experiment [4] it was -3.8 to 12.8%; in experiment [5], 20.3%; in experiment [6] it was 5.2%.

On to `CC(C)c1cc(C(C)C)c(S(=O)(=O)NC[C@@H](O)C[C@@H](Cc2ccccc2)C(=O)N[C@H]2c3ccccc3C[C@H]2O)c(C(C)C)c1`, for which the inhibition in experiment [1] was 18.6%; in experiment [2], 19.5%; in experiment [3] it was 30.9%; in experiment [4], 29.7 to 49.1%; in experiment [5], 90%; in experiment [6], 8.3%.

As for `CC(C)C(=O)Nc1ccc(S(=O)(=O)NC[C@@H](O)C[C@@H](Cc2ccccc2)C(=O)N[C@H]2c3ccccc3C[C@H]2O)cc1`, the inhibition in experiment [1] is 6.9%; in experiment [2], 1%; in experiment [3] it was 5.1%; in experiment [4], 4.6 to 5.3%; in experiment [5] it was 16.7%; in experiment [6] it was -7.5%.

Regarding `CC(C)(C)c1ccc(S(=O)(=O)NC[C@@H](O)C[C@@H](Cc2ccccc2)C(=O)N[C@H]2c3ccccc3C[C@H]2O)cc1`, the inhibition in experiment [1] came out at 13%; in experiment [2], 9.7%; in experiment [3], 18.1%; in experiment [4] it was 0%; in experiment [5], 72.1%; in experiment [6] it was 56.7%.

Consider `O=C(NC[C@@H](O)C[C@@H](Cc1ccccc1)C(=O)N[C@H]1c2ccccc2C[C@H]1O)c1c(Cl)cc(Cl)cc1Cl`, for which the inhibition was 14.8% in experiment [1]; 17.6% in experiment [2]; 25.3% in experiment [3]; 21.9 to 23.9% in experiment [4]; 12.3% in experiment [5]; 31.5% in experiment [6].

In the case of `CCCCNC(=O)c1ccc(S(=O)(=O)NC[C@@H](O)C[C@@H](Cc2ccccc2)C(=O)N[C@H]2c3ccccc3C[C@H]2O)cc1`, the inhibition in experiment [1] was 5.9%; in experiment [2], -0.4%; in experiment [3] it was 2.9%; in experiment [4], -0.4 to 7.55%; in experiment [5] it was 20.6%; in experiment [6] it was -5.5%.

As to `O=C(NC1Cc2ccccc2C1)[C@H](Cc1ccccc1)C[C@H](O)CNS(=O)(=O)c1ccc([N+](=O)[O-])cc1`, the inhibition in experiment [1] was 7.5%; in experiment [2], 5.7%; in experiment [3], 8.1%; in experiment [4], -2.7 to 12.9%; in experiment [5], 16%; in experiment [6], 9.8%.

In the case of `O=C(NC1CCCC1)c1ccc(S(=O)(=O)NC[C@@H](O)C[C@@H](Cc2ccccc2)C(=O)N[C@H]2c3ccccc3C[C@H]2O)cc1`, the inhibition in experiment [1] was 19.6%; in experiment [2], 15.2%; in experiment [3], 0.5%; in experiment [4], 3.9 to 15.9%; in experiment [5], 31.8%; in experiment [6] it was 0.1%.

As for `CC(C)(C)c1ccc(C(=O)NC[C@@H](O)C[C@@H](Cc2ccccc2)C(=O)N[C@H]2c3ccccc3C[C@H]2O)cc1`, the inhibition was 16% in experiment [1]; 10.7% in experiment [2]; 11.3% in experiment [3]; 15.5 to 16.2% in experiment [4]; 23.2% in experiment [5]; 7.8% in experiment [6].

Regarding `Cc1ccc(S(=O)(=O)NC[C@@H](O)C[C@@H](Cc2ccccc2)C(=O)N[C@H]2c3ccccc3C[C@H]2O)c(C)c1`, the inhibition was 10.9% in experiment [1]; 14.1% in experiment [2]; 20.3% in experiment [3]; 2.8 to 27.6% in experiment [4]; 23.3% in experiment [5]; 31.8% in experiment [6].

Take `N#Cc1ccc(S(=O)(=O)NC[C@@H](O)C[C@@H](Cc2ccccc2)C(=O)N[C@H]2c3ccccc3C[C@H]2O)cc1`: the inhibition in experiment [1] is 43.6%; in experiment [2], 27.3%; in experiment [3], 59.5%; in experiment [4] it was 38.5 to 91.8%; in experiment [5], 93.1%; in experiment [6], 90.4%.

Consider `O=C(NC[C@@H](O)C[C@@H](Cc1ccccc1)C(=O)N[C@H]1c2ccccc2C[C@H]1O)c1cccc([N+](=O)[O-])c1`, for which the inhibition in experiment [1] is 11%; in experiment [2] it was 11.8%; in experiment [3], 7.4%; in experiment [4], 4.75 to 19.9%; in experiment [5], 13.5%; in experiment [6] it was -4%.

As for `O=C(NC1CCCCCC1)[C@@H](Cc1ccccc1)C[C@H](O)CNS(=O)(=O)c1ccc([N+](=O)[O-])cc1`, the inhibition in experiment [1] is 10.6%; in experiment [2], 15.5%; in experiment [3], 3.6%; in experiment [4] it was -4 to 10.6%; in experiment [5], 14.3%; in experiment [6] it was 6.8%.

As to `COc1ccc(S(=O)(=O)NC[C@@H](O)C[C@@H](Cc2ccccc2)C(=O)N[C@H]2c3ccccc3C[C@H]2O)cc1`, the inhibition in experiment [1] is 45.9%; in experiment [2], 33.9%; in experiment [3], 76.7%; in experiment [4], 54.1 to 91.6%; in experiment [5] it was 93.8%; in experiment [6], 89.4%.
